Data taken from PubChem BioAssay (NCI).
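The compound was tested at five concentrations on cells cultured in 96-well plates, with a 48-hour exposure period. At the TGI there is no net growth.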

Key:
Assay in all cases: inhibition of tumour cell growth, NCI panel, 48 h
[1] = system: NCI-H23 lung
[2] = system: SK-MEL-2 melanoma
[3] = system: HOP-92 NSCLC
[4] = system: HCC-2998 colon
[5] = system: HS 578T breast
[6] = system: MDA-MB-435
[7] = system: MDA-MB-231 breast
[8] = system: LOX IMVI melanoma
[9] = system: HCT-15 colon
[10] = system: SR leukemia
[11] = system: OVCAR-5 ovarian
[12] = system: RXF 393 renal
[13] = system: NCI-H460 lung
[14] = system: TK-10 renal
[15] = system: SK-OV-3 ovarian
[16] = system: EKVX NSCLC
[17] = system: UACC-257 melanoma
[18] = system: K-562 leukemia
[19] = system: T-47D breast
[20] = system: RPMI-8226 leukemia
[21] = system: MDA-N
[22] = system: NCI/ADR-RES ovarian
[23] = system: HOP-62 NSCLC
[24] = system: HT29 colon
[25] = system: SF-295 CNS
[26] = system: MCF7 breast
[27] = system: A498 renal
[28] = system: UO-31 renal
[29] = system: COLO 205 colon
[30] = system: A549 NSCLC
[31] = system: CCRF-CEM leukemia
[32] = system: SNB-19 CNS
[33] = system: 786-0 renal
[34] = system: HCT-116 colon
[35] = system: U251 CNS
[36] = system: OVCAR-4 ovarian
[37] = system: BT-549 breast
[38] = system: SW-620 colon
[39] = system: MOLT-4 leukemia
[40] = system: NCI-H226 lung
[41] = system: M14 melanoma
[42] = system: IGROV1 ovarian
[43] = system: CAKI-1 renal
[44] = system: SNB-75 CNS
[45] = system: SF-268 CNS
[46] = system: ACHN renal
[47] = system: UACC-62 melanoma
[48] = system: KM12 colon
[49] = system: HL-60(TB) leukemia
[50] = system: OVCAR-8 ovarian
[51] = system: PC-3 prostate
[52] = system: OVCAR-3 ovarian
[53] = system: SN12C renal
[54] = system: SF-539 CNS
[55] = system: DU-145 prostate
[56] = system: SK-MEL-28 melanoma
[57] = system: SK-MEL-5 melanoma
[58] = system: NCI-H522 lung
[59] = system: MALME-3M melanoma

Q: Which results are given for N#CC(C#N)=C1CCCS(=O)(=O)c2ccccc21?
A: TGI [1]: > 100 µM; TGI [2]: > 100 µM; TGI [3]: > 100 µM; TGI [4]: > 100 µM; TGI [5]: > 100 µM; TGI [6]: > 100 µM; TGI [7]: > 100 µM; TGI [8]: > 100 µM; TGI [9]: > 100 µM; TGI [10]: > 100 µM; TGI [11]: > 100 µM; TGI [12]: > 100 µM; TGI [13]: > 100 µM; TGI [14]: > 100 µM; TGI [15]: > 100 µM; TGI [16]: > 100 µM; TGI [17]: > 100 µM; TGI [18]: > 100 µM; TGI [19]: > 100 µM; TGI [20]: > 100 µM; TGI [21]: > 100 µM; TGI [22]: > 100 µM; TGI [23]: > 100 µM; TGI [24]: > 100 µM; TGI [25]: > 100 µM; TGI [26]: > 100 µM; TGI [27]: > 100 µM; TGI [28]: > 100 µM; TGI [29]: > 100 µM; TGI [30]: > 100 µM; TGI [31]: > 100 µM; TGI [32]: > 100 µM; TGI [33]: > 100 µM; TGI [34]: > 100 µM; TGI [35]: > 100 µM; TGI [36]: > 100 µM; TGI [37]: > 100 µM; TGI [38]: > 100 µM; TGI [39]: > 100 µM; TGI [40]: > 100 µM; TGI [41]: > 100 µM; TGI [42]: > 100 µM; TGI [43]: > 100 µM; TGI [44]: > 100 µM; TGI [45]: > 100 µM; TGI [46]: > 100 µM; TGI [47]: > 100 µM; TGI [48]: > 100 µM; TGI [49]: > 100 µM; TGI [50]: > 100 µM; TGI [51]: > 100 µM; TGI [52]: > 100 µM; TGI [53]: > 100 µM; TGI [54]: > 100 µM; TGI [55]: > 100 µM; TGI [56]: > 100 µM

Q: Which TGI [1] does the source give for O=[N+]([O-])C(=C(Sc1ccccc1)Sc1ccccc1)C(Cl)=C(Cl)Cl here?
A: 2.91 µM

Q: And the TGI [2]?
A: 5.86 µM

Q: And the TGI [3]?
A: 5.99 µM

Q: And the TGI [4]?
A: 4.4 µM

Q: And the TGI [5]?
A: 17.6 µM

Q: What about the TGI [57] of the same compound?
A: 3.58 µM

Q: What about the TGI [6] of the same compound?
A: 1.3 µM

Q: What about the TGI [7] of the same compound?
A: 0.408 µM

Q: What about the TGI [8] of the same compound?
A: 1.09 µM

Q: And the TGI [9]?
A: 1.02 µM

Q: And the TGI [10]?
A: 0.564 µM

Q: And the TGI [11]?
A: 1.48 µM

Q: And the TGI [12]?
A: 1.99 µM

Q: And the TGI [13]?
A: 16.6 µM

Q: What about the TGI [14] of the same compound?
A: 0.326 µM

Q: And the TGI [15]?
A: 24.6 µM

Q: And the TGI [16]?
A: 5.15 µM

Q: What about the TGI [17] of the same compound?
A: 1.1 µM

Q: What about the TGI [18] of the same compound?
A: 0.701 µM

Q: And the TGI [19]?
A: 1.14 µM

Q: What about the TGI [20] of the same compound?
A: 0.0712 µM

Q: What about the TGI [21] of the same compound?
A: 0.675 µM

Q: And the TGI [22]?
A: 1.9 µM

Q: And the TGI [23]?
A: 4.09 µM

Q: What about the TGI [24] of the same compound?
A: 0.487 µM

Q: What about the TGI [25] of the same compound?
A: 28.3 µM

Q: And the TGI [26]?
A: 1.05 µM

Q: What about the TGI [58] of the same compound?
A: 0.143 µM

Q: And the TGI [27]?
A: 6.94 µM

Q: What about the TGI [28] of the same compound?
A: 0.402 µM

Q: And the TGI [29]?
A: 0.697 µM

Q: What about the TGI [30] of the same compound?
A: 6.59 µM

Q: What about the TGI [31] of the same compound?
A: 0.0419 µM

Q: And the TGI [32]?
A: 24.8 µM

Q: What about the TGI [33] of the same compound?
A: 0.188 µM

Q: What about the TGI [34] of the same compound?
A: 0.125 µM

Q: What about the TGI [35] of the same compound?
A: 4.21 µM

Q: What about the TGI [36] of the same compound?
A: 1.46 µM

Q: What about the TGI [37] of the same compound?
A: 4.61 µM

Q: What about the TGI [38] of the same compound?
A: 0.228 µM

Q: And the TGI [39]?
A: 0.216 µM

Q: And the TGI [40]?
A: 1.31 µM

Q: What about the TGI [41] of the same compound?
A: 1.17 µM

Q: And the TGI [42]?
A: 2.95 µM

Q: What about the TGI [43] of the same compound?
A: 1.61 µM

Q: And the TGI [44]?
A: 10.7 µM

Q: And the TGI [59]?
A: 1.37 µM

Q: And the TGI [45]?
A: 5.37 µM

Q: And the TGI [46]?
A: 0.895 µM

Q: And the TGI [47]?
A: 1.94 µM

Q: What about the TGI [48] of the same compound?
A: 7.03 µM

Q: What about the TGI [49] of the same compound?
A: 0.813 µM

Q: What about the TGI [50] of the same compound?
A: 0.831 µM

Q: And the TGI [51]?
A: 5.78 µM

Q: What about the TGI [52] of the same compound?
A: 1.31 µM

Q: What about the TGI [53] of the same compound?
A: 1.35 µM

Q: What about the TGI [54] of the same compound?
A: 5.81 µM

Q: And the TGI [55]?
A: 3.43 µM

Q: What about the TGI [56] of the same compound?
A: 1.09 µM
